According to ChEMBL document CHEMBL1201862, “PubChem BioAssay data set” (2004):
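Dose response: 5 concentrations. Exposure: 48 h. Format: 96-well plates. Endpoint: linear interpolation; highest concentration if not reached. The concentration for 50% growth inhibition is given as GI50.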 The source made the active and inactive calls. Cut-off read from the data, not from the text of the source: active = GI50 up to about 1.1 µM and inactive = higher.

Assays:
Experiment in all cases: inhibition of tumour cell growth, NCI panel, 48 h
U-251 = system: U-251
M14 = system: M14
COLO 205 = system: COLO 205
MOLT-4 = system: MOLT-4
Malme-3M = system: Malme-3M
OVCAR-3 = system: OVCAR-3
RXF 393 = system: RXF 393
EKVX = system: EKVX
NCI/ADR-RES = system: NCI/ADR-RES
SNB-19 = system: SNB-19
MDA-N = system: MDA-N
SK-OV-3 = system: SK-OV-3
SR = system: SR
UACC-257 = system: UACC-257
SNB-75 = system: SNB-75
T47D = system: T47D
ACHN = system: ACHN
HOP-92 = system: HOP-92
SK-MEL-28 = system: SK-MEL-28
SK-MEL-2 = system: SK-MEL-2

With `Cc1cc(N2CCN(C)CC2)n2nc(-c3ccc(Cl)cc3)nc2n1` the GI50 (U-251) was > 100 µM (inactive), the GI50 (M14) was > 100 µM (inactive) and the GI50 (COLO 205) was 81.7 µM (inactive). For the same compound, the GI50 (MOLT-4) was 34.8 µM (inactive), the GI50 (Malme-3M) was > 100 µM (inactive) and the GI50 (OVCAR-3) was > 100 µM (inactive). The GI50 (RXF 393) was 31.5 µM (inactive), the GI50 (EKVX) was 80.5 µM (inactive) and the GI50 (NCI/ADR-RES) was 90.6 µM (inactive). For the same compound, the GI50 (SNB-19) was > 100 µM (inactive), the GI50 (MDA-N) was 92.9 µM (inactive) and the GI50 (SK-OV-3) was > 100 µM (inactive). For the same compound, the GI50 (SR) was 17.7 µM (inactive), the GI50 (UACC-257) was 77.6 µM (inactive) and the GI50 (SNB-75) was 66.7 µM (inactive). For the same compound, the GI50 (T47D) was > 100 µM (inactive), the GI50 (ACHN) was 50.6 µM (inactive) and the GI50 (HOP-92) was > 100 µM (inactive). For the same compound, the GI50 (SK-MEL-28) was 91.8 µM (inactive) and the GI50 (SK-MEL-2) was 74.8 µM (inactive).
In the case of `CCOC(=O)O/N=C1/C(=C2/C(=O)Nc3ccccc32)Nc2ccccc21`, the GI50 (U-251) is reported as 9.14 µM (inactive), the GI50 (M14) is reported as 10.3 µM (inactive) and the GI50 (COLO 205) is reported as 15.5 µM (inactive). The GI50 (MOLT-4) was 3.74 µM (inactive), the GI50 (Malme-3M) was 10 µM (inactive) and the GI50 (OVCAR-3) was 2.15 µM (inactive). The GI50 (RXF 393) was 1.24 µM (inactive), the GI50 (EKVX) was 2.54 µM (inactive) and the GI50 (NCI/ADR-RES) was 4.83 µM (inactive). For the same compound, the GI50 (SNB-19) was 18.7 µM (inactive), the GI50 (MDA-N) was 3.91 µM (inactive) and the GI50 (SK-OV-3) was 1.59 µM (inactive). For the same compound, the GI50 (SR) was 3.61 µM (inactive), the GI50 (UACC-257) was 10.2 µM (inactive) and the GI50 (SNB-75) was 3.4 µM (inactive). For the same compound, the GI50 (T47D) was 3.93 µM (inactive), the GI50 (ACHN) was 4.41 µM (inactive) and the GI50 (HOP-92) was 22.3 µM (inactive). For the same compound, the GI50 (SK-MEL-28) was 10.9 µM (inactive) and the GI50 (SK-MEL-2) was 2.29 µM (inactive).
With `O=C1c2cccnc2S(=O)(=O)N1c1ccc(Oc2ccccc2)cc1` the GI50 (U-251) was > 100 µM (inactive), the GI50 (M14) was > 100 µM (inactive) and the GI50 (COLO 205) was > 100 µM (inactive). The GI50 (MOLT-4) was 92 µM (inactive), the GI50 (Malme-3M) was > 100 µM (inactive) and the GI50 (OVCAR-3) was > 100 µM (inactive). For the same compound, the GI50 (RXF 393) was 69.7 µM (inactive), the GI50 (EKVX) was > 100 µM (inactive) and the GI50 (NCI/ADR-RES) was > 100 µM (inactive). The GI50 (SNB-19) was > 100 µM (inactive), the GI50 (MDA-N) was > 100 µM (inactive) and the GI50 (SK-OV-3) was 41.4 µM (inactive). The GI50 (SR) was 80 µM (inactive), the GI50 (UACC-257) was 92.7 µM (inactive) and the GI50 (SNB-75) was > 100 µM (inactive). For the same compound, the GI50 (T47D) was > 100 µM (inactive), the GI50 (ACHN) was > 100 µM (inactive) and the GI50 (HOP-92) was > 100 µM (inactive). The GI50 (SK-MEL-28) was > 100 µM (inactive) and the GI50 (SK-MEL-2) was > 100 µM (inactive).
In the case of `COc1ccc(-c2c3c(cc4cc5c(cc24)OCO5)C(=O)OC3)cc1OC`, the GI50 (U-251) is reported as 4.67 µM (inactive), the GI50 (M14) is reported as 0.305 µM (active) and the GI50 (COLO 205) is reported as 0.383 µM (active). The GI50 (MOLT-4) was 3.62 µM (inactive), the GI50 (Malme-3M) was 0.51 µM (active) and the GI50 (OVCAR-3) was 0.885 µM (active). For the same compound, the GI50 (RXF 393) was 2.9 µM (inactive), the GI50 (EKVX) was 1.96 µM (inactive) and the GI50 (NCI/ADR-RES) was 0.132 µM (active). The GI50 (SNB-19) was 16.1 µM (inactive), the GI50 (MDA-N) was 2.01 µM (inactive) and the GI50 (SK-OV-3) was 13.4 µM (inactive). For the same compound, the GI50 (SR) was 0.0299 µM (active), the GI50 (UACC-257) was 2.07 µM (inactive) and the GI50 (SNB-75) was 6.92 µM (inactive). The GI50 (T47D) was 0.386 µM (active), the GI50 (ACHN) was 1.37 µM (inactive) and the GI50 (HOP-92) was 0.771 µM (active). The GI50 (SK-MEL-28) was 1.37 µM (inactive) and the GI50 (SK-MEL-2) was 1.83 µM (inactive).
For `CC(=O)OCCOc1cc2c([nH]c3ccccc32)c(C)c2cccc1-2`, the GI50 (U-251) was 1.69 µM (inactive), the GI50 (M14) was 2.48 µM (inactive) and the GI50 (COLO 205) was 1.7 µM (inactive). The GI50 (MOLT-4) was 3.33 µM (inactive), the GI50 (Malme-3M) was 2.11 µM (inactive) and the GI50 (OVCAR-3) was 2.01 µM (inactive). For the same compound, the GI50 (RXF 393) was 1.95 µM (inactive), the GI50 (EKVX) was 1.86 µM (inactive) and the GI50 (NCI/ADR-RES) was 3.53 µM (inactive). For the same compound, the GI50 (SNB-19) was 3.3 µM (inactive), the GI50 (MDA-N) was 3.16 µM (inactive) and the GI50 (SK-OV-3) was 4.3 µM (inactive). The GI50 (SR) was 2.92 µM (inactive), the GI50 (UACC-257) was 1.91 µM (inactive) and the GI50 (SNB-75) was 1.71 µM (inactive). For the same compound, the GI50 (T47D) was 1.92 µM (inactive), the GI50 (ACHN) was 1.75 µM (inactive) and the GI50 (HOP-92) was 1.86 µM (inactive). For the same compound, the GI50 (SK-MEL-28) was 2.58 µM (inactive) and the GI50 (SK-MEL-2) was 2.21 µM (inactive).
